Read-outs that look alike come from different tables or passages of the source.
What was measured:
[1] = molecular target: T1, 5-HT1A receptor (Rattus norvegicus, UniProt P19327); assay: 5-HT syndrome (serotoninergic syndrome) in the male rat; assay type: in vivo, male rat (Sprague-Dawley); parameters: carried out with the male rat (Sprague-Dawley); from tissue; host or cells: whole living rat (Sprague-Dawley); details: po
T1 sequence (P19327 1-422): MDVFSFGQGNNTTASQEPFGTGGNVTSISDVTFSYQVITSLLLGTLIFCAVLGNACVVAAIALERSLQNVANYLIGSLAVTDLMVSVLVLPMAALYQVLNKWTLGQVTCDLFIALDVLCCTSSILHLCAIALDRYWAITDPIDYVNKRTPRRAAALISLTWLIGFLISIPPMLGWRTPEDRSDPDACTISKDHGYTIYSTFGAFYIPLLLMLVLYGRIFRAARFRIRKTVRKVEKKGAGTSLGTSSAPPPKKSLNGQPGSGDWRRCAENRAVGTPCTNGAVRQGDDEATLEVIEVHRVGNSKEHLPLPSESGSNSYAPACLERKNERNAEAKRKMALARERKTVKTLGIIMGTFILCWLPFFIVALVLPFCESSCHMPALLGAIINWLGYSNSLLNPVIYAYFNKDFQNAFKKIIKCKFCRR
Experimental: The central activity of the compounds of the invention was evaluated by their ability to provoke the 5-HT syndrome, which is characterized by:
an alternating bending and stretching of the forepaws (reciprocal fore-paw treading: FPT)
the retraction of the lower lip (lower lip retraction: LLR)
a position or the ventral surface of the animal is in contact with the ground and the hind paws extended (flat body posture: FBP).
The experiments on the evaluation of the 5-HT syndrome are carried out with the male rat (Sprague-Dawley) according to the technique described by F. C. Colpaert et al. (Drug. Dev. Res., 26, 21-48, 1992) and M. S. Kleven et al. (J.P.E.T., 282, 747-759, 1997).

[2] = molecular target: T1, 5-HT1A receptor; assay: Binding to the 5-HT1A receptor (displacement of [3H]8-OH-DPAT, rat cortex); parameters: Brains from male Sprague-Dawley 180-200 g rats; tissue Iffa Credo, France (animals); host or cells: rat brain cortex; species or system male Sprague-Dawley rat; details: read-out: pKi 5-HT1A (converted)
Experimental: (§1) Binding to the 5-HT1A, D2 dopaminergic and α1-adrenergic receptors:
(§2) Brains from male Sprague-Dawley 180-200 g rats [Ico: OFA SD (I.O.P.S. Caw); Iffa Credo, France], maintained at -70° C., were used in all the studies.
(§3) The affinity of the products for the various receptors was determined by displacement of radioactive ligands under the conditions summarized in Table 1.
(§4) The reaction is halted by rapid filtration, under vacuum, through Whatman GF/B filters and the tubes are rinsed with 2×5 ml of Tris-HCl 50 mM, pH 7.4, buffer at 25° C. The radioactivity collected on the filter is analyzed by liquid scintillation after addition of 4 ml of liquid scintillant (Emulsifier Safe, Packard). All the experiments are carried out in triplicate.
(§5) The inhibition constants (Ki) of the products are estimated from the displacement experimentations by using the EBDA (equilibrium binding data analysis) Radlig Version 4 non linear regression program (Biosoft, Cambridge, UK; McPherson, 1985).
(§6) The pKi (-log Ki) values are given in the form of the mean±SEM of at least 3 experimentations (Table 2).
10 A Assie and Koek, Eur. J.

[3] = molecular target: α1-adrenergic receptor; assay: Binding to the α1-adrenergic receptor (displacement of [3H]prazosin, rat cortex); parameters: species or system male Sprague-Dawley rat; details: mean of at least 3 experimentations
Experimental: as §1, §2, §3, §4, §6

[4] = Antidepressant activity: Forced swimming test; assay type: in vivo; details: percentage of animals with significant decrease (p<0.05) in immobility time vs control; po
[5] = molecular target: T2, D2 dopaminergic receptor (Rattus norvegicus, UniProt P61169); assay: Binding to the D2 dopaminergic receptor (displacement of [3H]YM-09151-2, rat striatum); parameters: species or system male Sprague-Dawley rat; details: read-out: pKi D2 (converted)
T2 construct: Brains from male Sprague-Dawley 180-200 g rats; tissue Iffa Credo, France (animals); host or cells: rat brain striatum
Experimental: as §1, §2, §3, §4, §5, §6

[6] = FBP, read-out: ED50 FBP (flat body posture)
[7] = FPT, read-out: ED50 FPT (reciprocal fore-paw treading)
[8] = LLR, read-out: ED50 LLR (lower lip retraction)

T2 sequence (P61169 whole entry): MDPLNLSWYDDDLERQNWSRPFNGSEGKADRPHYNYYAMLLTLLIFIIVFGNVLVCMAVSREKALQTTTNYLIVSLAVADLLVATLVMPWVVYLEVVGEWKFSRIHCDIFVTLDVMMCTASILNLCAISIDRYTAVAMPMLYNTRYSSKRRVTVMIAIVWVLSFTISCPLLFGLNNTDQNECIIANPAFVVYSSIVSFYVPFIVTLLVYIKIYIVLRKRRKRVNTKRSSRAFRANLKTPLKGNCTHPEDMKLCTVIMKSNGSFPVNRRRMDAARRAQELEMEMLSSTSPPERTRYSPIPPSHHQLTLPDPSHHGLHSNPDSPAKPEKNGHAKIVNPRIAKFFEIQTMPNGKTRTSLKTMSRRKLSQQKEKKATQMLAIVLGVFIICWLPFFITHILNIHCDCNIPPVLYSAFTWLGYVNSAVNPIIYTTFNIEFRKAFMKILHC

Row | Structure (SMILES) | ED50 [1, 6] [mg/kg] | ED50 [1, 7] [mg/kg] | ED50 [1, 8] [mg/kg] | Ki [2] [nM] | pKi α1 [3] | ED50 [4] [mg/kg] | Ki [5] [nM]
1 | Cn1ncc(O[C@H]2CC[C@H](NCC3COc4ccccc4O3)CC2)nc1=O (relative stereo) [Compound 16, Trans-5-[4-[(2,3-Dihydrobenzo[1,4]Dioxin-2-Ylmethyl)Amino]Cyclohexyloxy]-2-Methyl-2H-[1,2,4]Triazin-3-One] | 0.31 | > 2.5 | 0.08 | 0.166 |  |  | 
2 | O=C1CC2(CCCC2)CC(=O)N1CCCCN1CCN(c2ncccn2)CC1 [Buspirone, reference compound] |  | > 40 | 2.5 |  | 6.19 | > 160 | 
3 | Cn1c(=O)cnn([C@H]2CC[C@H](N3CCN(c4ncccn4)CC3)CC2)c1=O [Compound 4, Trans-4-Methyl-2-[4-(4-Pyrimidin-2-Yl-Piperazin-1-Yl)Cyclohexyl]-2H-[1,2,4]Triazine-3,5-Dione] | 1.25 | 1.25 | 0.31 | 3.72 | < 5.0 | 1.25 | > 10000
4 | Cc1cc(C)nc(N2CCN([C@H]3CC[C@H](n4ncc(=O)n(C)c4=O)CC3)CC2)n1 [Compound 5, trans-4-Methyl-2-[4-[4-(4,6-dimethylpyrimidin-2-yl)piperizin-1-yl]cyclohexyl]-2H-[1,2,4]triazine-3,5-dione] | 0.08 | 0.08 | < 0.04 | 0.603 | 5.89 | 0.31 | > 10000
5 | Cc1ccnc(N2CCN([C@H]3CC[C@H](n4ncc(=O)n(C)c4=O)CC3)CC2)n1 [Compound 6, Trans-4-Methyl-2-[4-[4-(4-Methylpyrimidin-2-Yl)Piperazin-1-Yl]Cyclohexyl]-2H-[1,2,4]triazine-3,5-dione] | 0.08 | 0.08 | 0.08 | 0.813 | 6.10 |  | > 10000
6 | Cn1ncc(O[C@H]2CC[C@H](N3CCN(c4ncccn4)CC3)CC2)nc1=O [Compound 9, trans-2-Methyl-5-[4-(4-pyrimidin-2-yl-piperizin-1-yl)cyclohexyloxy]-2H-[1,2,4]triazin-3-one] | 0.08 | 0.31 | 0.08 | 0.708 | < 5.0 | 0.31 | > 10000
7 | Cc1ccnc(N2CCN([C@H]3CC[C@H](Oc4cnn(C)c(=O)n4)CC3)CC2)n1 [Compound 10, trans-2-Methyl-5-[4-[4-(4-methylpyrimidin-2-yl)piperazin-1-yl]cyclohexyloxy]-2H-[1,2,4]triazin-3-one] | 0.08 | 0.08 | 0.02 | 0.251 | 5.95 | 0.08 | > 10000
8 | Cc1cc(C)nc(N2CCN([C@H]3CC[C@H](Oc4cnn(C)c(=O)n4)CC3)CC2)n1 [Compound 11, Trans-2-Methyl-5-[4-[4-(4,6-Dimethyl-Pyrimidin-2-Yl)Piperazin-1-Yl]Cyclohexyloxy]-2H-[1,2,4]triazin-3-one] | 0.02 | 0.08 | 0.02 | 0.251 | 5.72 | 0.08 | > 10000
9 | Cn1ncc(O[C@H]2CC[C@H](N3CCN(c4nccc(Cl)n4)CC3)CC2)nc1=O [Compound 12, Trans-2-Methyl-5-[4-[4-(4-Chloropyrimidin-2-Yl)Piperazin-1-Yl]Cyclohexyloxy]-2H-[1,2,4]Triazin-3-One] | 0.08 | 0.08 | 0.08 | 0.288 | 6.21 | 0.74 | > 10000
10 | COc1ccnc(N2CCN([C@H]3CC[C@H](Oc4cnn(C)c(=O)n4)CC3)CC2)n1 [Compound 13, Trans-2-Methyl-5-[4-[4-(4-Methoxypyrimidin-2-Yl)Piperazin-1-yl]Cyclohexyloxy]-2H-[1,2,4]triazin-3-One] | 0.31 | 0.31 | 0.08 | 0.525 | 6.65 |  | > 10000
11 | Cn1ncc(O[C@H]2CC[C@H](N3CCN(c4nccc(C(F)(F)F)n4)CC3)CC2)nc1=O [Compound 14, Trans-2-Methyl-5-[4-[4-(4-Trifluoro-Methylpyrimidin-2-Yl)Piperazin-1-Yl]Cyclohexyloxy]-2H-[1,2,4]Triazin-3-One] | 0.31 | 0.31 | 0.08 |  |  |  | 
12 | Cn1ncc(O[C@H]2CC[C@H](N3CCN(c4ncc(F)cn4)CC3)CC2)nc1=O [Compound 15, Trans-2-Methyl-5-[4-[4-(5-Fluoropyrimidin-2-Yl)Piperazin-1-yl]Cyclohexyloxy]-2H-[1,2,4]Triazin-3-One] | 1.25 | > 2.5 | 0.31 |  |  |  | 
13 | Cn1nc(N[C@H]2CC[C@H](N3CCN(c4cccc(Cl)c4)CC3)CC2)c(=O)n(C)c1=O [Compound 17, trans-6-{4-[4-(3-Chlorophenyl)piperazin-1-yl]cyclohexylamino}-2,4-dimethyl-2H-[1,2,4]triazine-3,5-dione] |  |  |  | 0.398 | 7.74 |  | 603
14 | Cn1nc(N(C)[C@H]2CC[C@H](N3CCN(c4cccc(Cl)c4)CC3)CC2)c(=O)n(C)c1=O [Compound 19, Trans-6-({4-[4-(3-Chlorophenyl)Piperazin-1-Yl]Cyclohexyl}Methylamino)-2,4-Dimethyl-2H-[1,2,4]Triazine-3,5-Dione] |  |  |  | 0.195 | 7.86 |  | > 10000
15 | O=C(NCCN1CCN(c2cccc3c2OC[C@H](CO)O3)CC1)c1ccc(F)cc1 [Flesinoxan, reference compound] | 1.25 | 5 | 1.25 | 1.23 | 6.50 | 1.25 | 89.1

From patent US6191130A, “Cyclohexane derivatives difunctionalised in 1,4 as ligands of 5T H1A receptors” (Pierre Fabre Medicament, priority 1997, dated 2001)
